# Laboratory results from article PMC4116177, “Rational Modification of Estrogen Receptor by Combination of Computational and Experimental Analysis” (PLoS ONE, 2014).
# Numbering of substitutions follows the chain as printed.
# T1: M421F-ERα ^LBD (Homo sapiens, UniProt P03372, M421F)
# T1 construct: The polypeptide fragment 303-547 of the human ERα has been thus cloned; made in house; host or cells: E. coli Rosetta 2(DE3)pLysS
# T1 sequence (P03372 303-547 M421F): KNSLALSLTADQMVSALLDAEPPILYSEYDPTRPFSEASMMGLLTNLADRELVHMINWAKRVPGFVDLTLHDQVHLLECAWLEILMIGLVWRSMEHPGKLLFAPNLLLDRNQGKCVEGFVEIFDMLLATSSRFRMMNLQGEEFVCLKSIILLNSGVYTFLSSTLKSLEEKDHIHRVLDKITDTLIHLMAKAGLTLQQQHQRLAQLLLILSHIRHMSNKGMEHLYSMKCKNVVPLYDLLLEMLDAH
# T2: M421I-ERα ^LBD (Homo sapiens, UniProt P03372, M421I)
# T2 construct: The polypeptide fragment 303-547 of the human ERα has been thus cloned; made in house; host or cells: E. coli Rosetta 2(DE3)pLysS
# T2 sequence (P03372 303-547 M421I): T1 sequence (P03372 303-547 M421F) with F119I
# T3: wt-ERα ^LBD (Homo sapiens, UniProt P03372)
# T3 construct: The polypeptide fragment 303-547 of the human ERα has been thus cloned; made in house; host or cells: E. coli Rosetta 2(DE3)pLysS
# T3 sequence (P03372 303-547): T1 sequence (P03372 303-547 M421F) with F119M
# B1: wt-ERα ^LBD: recombinant His6-tagged polypeptide fragment 303-547 (ligand binding domain) of human ERα, wild type (protein, UniProt P03372 303-547, looked up, fragment)
# chain: T1 sequence (P03372 303-547 M421F) with F119M
# modifications: ligand binding domain His6 tag
# Key:
# [1] = target: T1, M421F-ERα ^LBD; assay: PolarScreen competitive binding assay (fluorescence polarization) with M421F mutant
# Protocol: (§1) The PolarScreen assay was used to test the ligand binding affinity of wt-ERα ^LBD and its mutants towards different classes of estrogen disrupting compounds.
# (§2) Each compound was tested in a range of 12 concentrations with the ER receptors (Figure 5). The compounds concentrations (X axis) were plotted in a logarithmic scale against the Polarization values (Y axis). The plot of compounds concentrations against Polarization were fitted with a one site competition […] logistic curve (see Materials and Methods for further details).
# (§3) To test the binding affinity of the recombinant receptor for EDCs we used the competitive binding assay developed by Life Technologies for ERα, the PolarScreen Estrogen Receptor-α Competitor Green Assay.
# (§4) The full length ERα provided with the kit was replaced by our recombinant ERα ^LBD. In short, wt or mutant ERα ^LBD are added to the Fluormone and incubated at 4°C for 45 minutes to form the receptor-Fluormone complex. This complex is then mixed and incubated at 25°C for 2 h with the individual EDCs and the intensity of the fluorescence polarization signal (directly proportional to the amount of Fluormone bound to the protein) measured. The addition of competitors displaces the Fluormone from the ERα ^LBD receptor, resulting in a decreased fluorescence signal. The fluorescence polarization anisotropy signal (P) is read using an Infinite 200 Pro multimode plate reader from Tecan and calculated with the following equation: [drawing 1]
# The P data (y) were fitted against the competitor concentrations (x) with a typical one site competition three parameters logistic curve: [drawing 2]
# LogIC50 = Log of the concentration of test compound required to reduce the maximum polarization value by 50%. All the resulting IC50 values are obtained by the average of at least four different experiments.
# [2] = target: T2, M421I-ERα ^LBD; assay: PolarScreen competitive binding assay (fluorescence polarization) with M421I mutant
# Protocol: as §1, §2, §3
# as §4, with “In short, wt or mutant ERα ^LBD are added to the Fluormone and incubated at 4°C for 45 minutes to form the receptor-Fluormone complex.” left out, “1] […]” for “1]”
# [3] = target: T3, wt-ERα ^LBD; assay: PolarScreen competitive binding assay (fluorescence polarization) with wt-ERα LBD
# Protocol: as §1, §2, §3
# as §4, with “In short, wt or mutant ERα ^LBD are added to the Fluormone and incubated at 4°C for 45 minutes to form the receptor-Fluormone complex.” left out, “1] […]” for “1]”
# [4] = Thermal unfolding followed by CD spectroscopy at 222 nm; assay type: physicochemical
# Protocol: The thermal stability of the different ERs was assessed by following the protein thermal unfolding between 25 and 90°C with CD spectroscopy (Figures 3D, 3E and 3F). The unfolding process is not reversible: by cooling back the samples to 25°C only around 50% of the original secondary structure of the protein is recovered (data not shown). By fitting the experimental data with a Boltzmann-type equation it was possible to calculate melting temperature (Tm) values of 59.5±1.5°C, 65.8±1.4°C, and 61.5±1.3°C for the wt-ERα ^LBD, M421F-ERα ^LBD, and M421I-ERα ^LBD proteins, respectively.
# Circular dichroism spectra were recorded with a J750 Circular dichroism spectrometer from Jasco interfaced with a Peltier temperature control unit with 1 mm path length cuvette. Analysis of the far-UV region (185–260 nm) was used to investigate the secondary structure and the folding of the protein. CD spectra were analyzed with the DichroWeb online software, by means of the CDSSTR program. Thermal denaturation experiments were performed by monitoring the circular dichroism at 222 nm while changing the temperature from 25 to 90°C (1°C/min) and backward. Reference spectra were collected for the buffers in which proteins were dissolved. Denaturation curves were analyzed assuming a two-state unfolding model and melting temperature (Tm) was calculated for every mutant. […]
molecule,measurement,setting,value
CCCCCCCCCc1ccc(O)cc1 [4-Nonylphenol],IC50,[1],4 ± 2 µM
same,IC50 of M421F-ERα ^LBD compared to wt-ERα ^LBD (in words),[1]; M421F versus wt,twice as strong
same,IC50,[2],60 ± 30 µM
same,IC50,[3],8 ± 1 µM
CC(C)(c1ccc(O)cc1)c1ccc(O)cc1 [Bisphenol-A],binds more strongly to M421F-ERα ^LBD than to wt-ERα ^LBD,"[1]; from IC50 values, M421F versus wt",approximately 6 times
B1,melting temperature (Tm),"[4]; CD at 222 nm, 25 to 90°C, Boltzmann-type fit",59.5±1.5 °C
same,melting temperature higher than that previously reported for the full-length ERα protein,[4]; versus full-length ERα,about 20 °C
